Paper PMC10580965 (Microbiology Spectrum, 2023)
≈ marks a conversion by molar mass, not a printed value. Read-outs that look alike come from different tables or passages of the source. Bridge positions count the residues as written; N and C are the ends. Square brackets hold non-standard residues; d marks the D form. Peptide text beside a SMILES is read from it. * marks the point of attachment. Ileψ(thiazoline)Cys = CC[C@H](C)[C@H](N)C1=N[C@H](C(=O)*)CS1; dOrn = NCCC[C@@H](N)C(=O)O; X1 = CC[C@H](C)CCCCC(=O)*; Dab = NCC[C@H](N)C(=O)O

Assays:
[1] = pH 7; cited from earlier work
[2] = test system: C. pseudotuberculosis ΔlysX complement
[3] = test system: C. pseudotuberculosis wild-type
[4] = test system: Corynebacterium spp.; conditions: cited from earlier work

| Compound | Charge [1] | MIC ΔlysX complement [2] [µg/mL] | MIC wt [3] [µg/mL] | MIC wt ([3]; 24 h) [µg/mL] | susceptibility breakpoint [4] [µg/mL] | MIC ΔlysX complement ([2]; 24 h) [µg/mL] |
| --- | --- | --- | --- | --- | --- | --- |
| CC1(C)S[C@@H]2[C@H](NC(=O)[C@H](N)c3ccccc3)C(=O)N2[C@H]1C(=O)O [Ampicillin] | 0 | – | – | – | – | – |
| CN[C@@H]1[C@@H](O[C@H]2O[C@H](CO)[C@@H](N)[C@H](O)[C@H]2O)OC2C[C@@H](N)[C@@H](O[C@H]3[C@H](O)[C@@H](O)[C@H](N)C[C@@H]3N)OC2[C@@H]1O (some centres unmarked) [Apramycin] | +5 | 20 (≈ 37.1 µM) | 20 (≈ 37.1 µM) | – | – | – |
| CC1(C)S[C@@H]2[C@H](NC(=O)[C@H](NC(=O)N3CCNC3=O)c3ccccc3)C(=O)N2[C@H]1C(=O)O [Azlocillin] | −1 | – | 0.156 (≈ 0.338 µM) | – | – | – |
| CC[C@H](C)[C@H](N)C1=N[C@H](C(=O)N[C@@H](CC(C)C)C(=O)N[C@H](CCC(=O)O)C(=O)N[C@H](C(=O)N[C@H]2CCCCNC(=O)[C@H](CC(N)=O)NC(=O)[C@@H](CC(=O)O)NC(=O)[C@H](Cc3cnc[nH]3)NC(=O)[C@@H](Cc3ccccc3)NC(=O)[C@H]([C@@H](C)CC)NC(=O)[C@@H](CCCN)NC2=O)[C@@H](C)CC)CS1 [Bacitracin] ({Ileψ(thiazoline)Cys}-L[dE]IK[dOrn]I[dF]H[dD]N; lactam 4-C (inferred); N-terminus assumed) | 0 | – | – | 6.4 (≈ 4.5 µM) | – | – |
| CO/N=C(\C(=O)N[C@@H]1C(=O)N2C(C(=O)O)=C(CSc3nc(=O)c(=O)[nH]n3C)CS[C@H]12)c1csc(N)n1 [Ceftriaxone] | −2 | – | 0.625 (≈ 1.13 µM) | – | – | – |
| O=C(N[C@H](CO)[C@H](O)c1ccc([N+](=O)[O-])cc1)C(Cl)Cl [Chloramphenicol] | 0 | – | 10 (≈ 30.9 µM) | – | – | – |
| CC[C@H]1OC(=O)[C@H](C)[C@@H](O[C@H]2C[C@@](C)(OC)[C@@H](O)[C@H](C)O2)[C@H](C)[C@@H](O[C@@H]2O[C@H](C)C[C@H](N(C)C)[C@H]2O)[C@](C)(O)C[C@@H](C)C(=O)[C@H](C)[C@@H](O)[C@]1(C)O [Erythromycin] | +1 | – | 0.156 (≈ 0.213 µM) | – | – | – |
| CNC(C)C1CCC(N)C(OC2C(N)CC(N)C(OC3OCC(C)(O)C(NC)C3O)C2O)O1 (centres unmarked) [Gentamicin] | +5 | 5 (≈ 10.5 µM) | 5 (≈ 10.5 µM) | – | 4 | – |
| NC[C@H]1O[C@H](O[C@H]2[C@H](O)[C@@H](O[C@H]3O[C@H](CO)[C@@H](O)[C@H](N)[C@H]3O)[C@H](N)C[C@@H]2N)[C@H](O)[C@@H](O)[C@@H]1O [Kanamycin] | +4 | 10 (≈ 20.6 µM) | 10 (≈ 20.6 µM) | – | – | – |
| CC[C@H](C)[C@H](NC(=O)CN)C(=O)NCC(=O)N[C@@H](C)C(=O)N[C@H](C(=O)N[C@@H](CC(C)C)C(=O)N[C@@H](CCCCN)C(=O)N[C@H](C(=O)N[C@@H](CC(C)C)C(=O)N[C@H](C(=O)N[C@H](C(=O)NCC(=O)N[C@@H](CC(C)C)C(=O)N1CCC[C@H]1C(=O)N[C@@H](C)C(=O)N[C@@H](CC(C)C)C(=O)N[C@H](C(=O)N[C@@H](CO)C(=O)N[C@@H](Cc1c[nH]c2ccccc12)C(=O)N[C@H](C(=O)N[C@@H](CCCCN)C(=O)N[C@@H](CCCNC(=N)N)C(=O)N[C@@H](CCCCN)C(=O)N[C@@H](CCCNC(=N)N)C(=O)N[C@@H](CCC(N)=O)C(=O)N[C@@H](CCC(N)=O)C(N)=O)[C@@H](C)CC)[C@@H](C)CC)[C@@H](C)O)[C@@H](C)O)C(C)C)C(C)C [Melittin] | +5 | – | – | >40 | – | >40 |
| Cc1onc(-c2ccccc2)c1C(=O)N[C@@H]1C(=O)N2[C@@H]1SC(C)(C)[C@@H]2C(=O)O [Oxacillin] | −1 | – | 2.5 (≈ 6.23 µM) | – | – | – |
| CN(C)[C@@H]1C(O)=C(C(N)=O)C(=O)[C@@]2(O)C(O)=C3C(=O)c4c(O)cccc4[C@@](C)(O)[C@H]3[C@H](O)[C@@H]12 [Oxytetracycline] | 0 | – | 0.625 (≈ 1.36 µM) | – | – | – |
| CC[C@H](C)CCCCC(=O)N[C@@H](CCN)C(=O)N[C@H](C(=O)N[C@@H](CCN)C(=O)N[C@H]1CCNC(=O)[C@H]([C@@H](C)O)NC(=O)[C@H](CCN)NC(=O)[C@H](CCN)NC(=O)[C@H](CC(C)C)NC(=O)[C@@H](Cc2ccccc2)NC(=O)[C@H](CCN)NC1=O)[C@@H](C)O [Polymyxin B] (X1-[Dab]T[Dab][Dab][Dab][dF]L[Dab][Dab]T; lactam 4-C (inferred); N-terminus assumed) | +5 | – | – | 640 (≈ 532 µM) | – | 640 (≈ 532 µM) |
| CN[C@@H]1[C@H](O)[C@H](NC)[C@H]2O[C@@]3(O)C(=O)C[C@@H](C)O[C@H]3O[C@@H]2[C@H]1O [Spectinomycin] | +1 | 2.5 (≈ 7.52 µM) | 2.5 (≈ 7.52 µM) | – | – | – |
| [H]/N=C(/N)N[C@H]1[C@H](O)[C@@H](O)[C@H](O[C@@H]2O[C@@H](C)[C@](O)(C=O)[C@H]2O[C@@H]2O[C@@H](CO)[C@H](O)[C@@H](O)[C@@H]2NC)[C@@H](N/C(N)=N\[H])[C@@H]1O [Streptomycin] | +3 | 20 (≈ 34.4 µM) | 20 (≈ 34.4 µM) | – | – | – |
| CN(C)[C@@H]1C(O)=C(C(N)=O)C(=O)[C@@]2(O)C(O)=C3C(=O)c4c(O)cccc4[C@@](C)(O)[C@H]3C[C@@H]12 [Tetracycline] | −1 | – | 0.312 (≈ 0.702 µM) | – | – | – |
| CCCNC[C@]1(O)[C@H](C)O[C@@H](O[C@H]2[C@H](C)[C@@H](O[C@@H]3O[C@H](C)C[C@H](N(C)C)[C@H]3O)[C@](C)(O)C[C@@H](C)CN[C@H](C)[C@@H](O)[C@](C)(O)[C@@H](CC)OC(=O)[C@@H]2C)C[C@@]1(C)OC [Tulathromycin] | +3 | 2.5 (≈ 3.1 µM) | 2.5 (≈ 3.1 µM) | – | – | – |
| CN[C@H](CC(C)C)C(=O)N[C@H]1C(=O)N[C@@H](CC(N)=O)C(=O)N[C@H]2C(=O)N[C@H]3C(=O)N[C@H](C(=O)N[C@H](C(=O)O)c4cc(O)cc(O)c4-c4cc3ccc4O)[C@H](O)c3ccc(c(Cl)c3)Oc3cc2cc(c3O[C@@H]2O[C@H](CO)[C@@H](O)[C@H](O)[C@H]2O[C@H]2C[C@](C)(N)[C@H](O)[C@H](C)O2)Oc2ccc(cc2Cl)[C@H]1O [Vancomycin] | +1 | – | – | 0.75 (≈ 0.518 µM) | – | – |
| Nisin | +4 | 80 | 80 | – | – | – |
